Source: ChEMBL document CHEMBL3885881, “DrugMatrix”

Species: Rattus norvegicus
Experiment: DrugMatrix - Regimen: Daily Repeat
Type: toxicity, organism-based, Sprague-Dawley
Parameters: regimen Daily Repeat, gender Male, age 6-8 weeks
Conditions: in vivo, po, route oral GAVAGE, vehicle .5 % CMC; for BASOPHIL / EOSINOPHIL / ERYTHROCYTE COUNT / HEMATOCRIT / HEMOGLOBIN / LEUKOCYTE COUNT / LYMPHOCYTE / MEAN CORPUSCULAR HEMOGLOBIN / MEAN CORPUSCULAR HEMOGLOBIN CONCENTRATION / MEAN CORPUSCULAR VOLUME / MONOCYTE / NEUTROPHIL / PLATELET COUNT: tissue Blood; for ALANINE AMINOTRANSFERASE / ALBUMIN / ALKALINE PHOSPHATASE / ASPARTATE AMINOTRANSFERASE / BLOOD UREA NITROGEN / CHLORIDE / CHOLESTEROL / CREATINE PHOSPHOKINASE / CREATININE / GLUCOSE / PHOSPHORUS / POTASSIUM / SODIUM / TOTAL BILIRUBIN / TOTAL PROTEIN: tissue Plasma
[1] = 0 mg/kg, 72 h, dose level Control, time 3 day
[2] = 0 mg/kg, 120 h, dose level Control, time 5 day
[3] = 25 mg/kg, 72 h, dose level Low, time 3 day
[4] = 25 mg/kg, 120 h, dose level Low, time 5 day

N=C(N)NCCN1CCCCCCC1 [GUANETHIDINE]
BASOPHIL [1]: 0% | EOSINOPHIL [1]: 0% | ERYTHROCYTE COUNT [1]: 6.34 x10E6/uL | HEMATOCRIT [1]: 37.62% | HEMOGLOBIN [1]: 14.82 G/DL | LEUKOCYTE COUNT [1]: 11.18 x10E3/uL | LYMPHOCYTE [1]: 87.5% | MEAN CORPUSCULAR HEMOGLOBIN [1]: 23.48 pg | MEAN CORPUSCULAR HEMOGLOBIN CONCENTRATION [1]: 39.5 G/DL | MEAN CORPUSCULAR VOLUME [1]: 59.45 fL | MONOCYTE [1]: 1.67% | NEUTROPHIL [1]: 10.83% | PLATELET COUNT [1]: 1074.83 x10E3/uL | ALANINE AMINOTRANSFERASE [1]: 36.5 u/L | ALBUMIN [1]: 3.9 G/DL | ALKALINE PHOSPHATASE [1]: 370.17 u/L | ASPARTATE AMINOTRANSFERASE [1]: 63.17 u/L | BLOOD UREA NITROGEN [1]: 16.83 mg/dL | CHLORIDE [1]: 99.33 MEQ/L | CHOLESTEROL [1]: 64.33 mg/dL | CREATINE PHOSPHOKINASE [1]: 127 u/L | CREATININE [1]: 0.55 mg/dL | GLUCOSE [1]: 173.5 mg/dL | PHOSPHORUS [1]: 10.08 mg/dL | POTASSIUM [1]: 6.23 MEQ/L | SODIUM [1]: 143.5 MEQ/L | TOTAL BILIRUBIN [1]: 0.52 mg/dL | TOTAL PROTEIN [1]: 6.35 G/DL | BASOPHIL [2]: 0% | EOSINOPHIL [2]: 0.17% | ERYTHROCYTE COUNT [2]: 6.12 x10E6/uL | HEMATOCRIT [2]: 37.08% | HEMOGLOBIN [2]: 14.82 G/DL | LEUKOCYTE COUNT [2]: 11.87 x10E3/uL | LYMPHOCYTE [2]: 83.33% | MEAN CORPUSCULAR HEMOGLOBIN [2]: 24.25 pg | MEAN CORPUSCULAR HEMOGLOBIN CONCENTRATION [2]: 39.97 G/DL | MEAN CORPUSCULAR VOLUME [2]: 60.65 fL | MONOCYTE [2]: 1.5% | NEUTROPHIL [2]: 15% | PLATELET COUNT [2]: 1042.83 x10E3/uL | ALANINE AMINOTRANSFERASE [2]: 46 u/L | ALBUMIN [2]: 3.82 G/DL | ALKALINE PHOSPHATASE [2]: 369.5 u/L | ASPARTATE AMINOTRANSFERASE [2]: 65 u/L | BLOOD UREA NITROGEN [2]: 16.33 mg/dL | CHLORIDE [2]: 100.67 MEQ/L | CHOLESTEROL [2]: 57.17 mg/dL | CREATINE PHOSPHOKINASE [2]: 130 u/L | CREATININE [2]: 0.53 mg/dL | GLUCOSE [2]: 163.33 mg/dL | PHOSPHORUS [2]: 9.53 mg/dL | POTASSIUM [2]: 6.27 MEQ/L | SODIUM [2]: 144.83 MEQ/L | TOTAL BILIRUBIN [2]: 0.55 mg/dL | TOTAL PROTEIN [2]: 6.32 G/DL | BASOPHIL [3]: 0% | EOSINOPHIL [3]: 0% | ERYTHROCYTE COUNT [3]: 6 x10E6/uL | HEMATOCRIT [3]: 35.93% | HEMOGLOBIN [3]: 14.07 G/DL | LEUKOCYTE COUNT [3]: 11.77 x10E3/uL | LYMPHOCYTE [3]: 86.33% | MEAN CORPUSCULAR HEMOGLOBIN [3]: 23.5 pg | MEAN CORPUSCULAR HEMOGLOBIN CONCENTRATION [3]: 39.17 G/DL | MEAN CORPUSCULAR VOLUME [3]: 60.07 fL | MONOCYTE [3]: 0% | NEUTROPHIL [3]: 13.67% | PLATELET COUNT [3]: 1321.67 x10E3/uL | ALANINE AMINOTRANSFERASE [3]: 33.67 u/L | ALBUMIN [3]: 3.63 G/DL | ALKALINE PHOSPHATASE [3]: 372.67 u/L | ASPARTATE AMINOTRANSFERASE [3]: 57.67 u/L | BLOOD UREA NITROGEN [3]: 11.33 mg/dL | CHLORIDE [3]: 98.67 MEQ/L | CHOLESTEROL [3]: 63.67 mg/dL | CREATINE PHOSPHOKINASE [3]: 142.33 u/L | CREATININE [3]: 0.43 mg/dL | GLUCOSE [3]: 175.67 mg/dL | PHOSPHORUS [3]: 12.27 mg/dL | POTASSIUM [3]: 5.97 MEQ/L | SODIUM [3]: 143.67 MEQ/L | TOTAL BILIRUBIN [3]: 0.33 mg/dL | TOTAL PROTEIN [3]: 5.8 G/DL | BASOPHIL [4]: 0% | EOSINOPHIL [4]: 0.67% | ERYTHROCYTE COUNT [4]: 5.92 x10E6/uL | HEMATOCRIT [4]: 35.83% | HEMOGLOBIN [4]: 14.4 G/DL | LEUKOCYTE COUNT [4]: 11.83 x10E3/uL | LYMPHOCYTE [4]: 89.67% | MEAN CORPUSCULAR HEMOGLOBIN [4]: 24.33 pg | MEAN CORPUSCULAR HEMOGLOBIN CONCENTRATION [4]: 40.17 G/DL | MEAN CORPUSCULAR VOLUME [4]: 60.63 fL | MONOCYTE [4]: 1% | NEUTROPHIL [4]: 8.67% | PLATELET COUNT [4]: 1170.33 x10E3/uL | ALANINE AMINOTRANSFERASE [4]: 33 u/L | ALBUMIN [4]: 3.53 G/DL | ALKALINE PHOSPHATASE [4]: 229.67 u/L | ASPARTATE AMINOTRANSFERASE [4]: 54.67 u/L | BLOOD UREA NITROGEN [4]: 10.33 mg/dL | CHLORIDE [4]: 100.33 MEQ/L | CHOLESTEROL [4]: 57.67 mg/dL | CREATINE PHOSPHOKINASE [4]: 129.33 u/L | CREATININE [4]: 0.47 mg/dL | GLUCOSE [4]: 170.67 mg/dL | PHOSPHORUS [4]: 11.13 mg/dL | POTASSIUM [4]: 5.9 MEQ/L | SODIUM [4]: 145.33 MEQ/L | TOTAL BILIRUBIN [4]: 0.2 mg/dL | TOTAL PROTEIN [4]: 5.7 G/DL
